The text below walks through data of US4049495A, “Physiologically active substances and fermentative process for producing the same” (Sankyo Company Limited, priority 1974, dated 1977).

≈ marks a conversion by molar mass, not a printed value.

One data set relates to cholesterol biosynthesis. Kind of data set: inhibition of cholesterol biosynthesis in vitro (rat liver slice, radioactive acetic acid). Type of data set: cell-based. As to conditions: 1 h, 37° C., 60 minutes, read-out: concentration exhibiting about 50% inhibition of cholesterol biosynthesis. The method, then:
I. The activity in vitro on inhibition of cholesterol biosynthesis of the substances ML-236 may be assayed by the following method. Slice of rat liver and radioactive acetic acid are brought to interaction at 37° C. for 60 minutes, the radioactive cholesterol thus biosynthesized is saponified and separated as precipitates with digitonin and then its radioactivity is measured to determine the produced cholesterol amount. Separately, the same procedures as above are employed except that ML-236 is added at the beginning of the reaction, thereby the biosynthesized cholesterol amount being determined. Thus, an effect of ML-236 can be quantitively determined. (See Bricker et al.: The Journal of Biological Chemistry, 247, 4914, 1972).

Data set [1] can be described thus: solubility in organic solvents. It is filed as physicochemical.
Data set [2] relates to cholesterol levels in blood and liver. Nature of the data set: lowering of cholesterol in blood and liver of Triton WR 1339-treated rats. Type of data set: in vivo. As to conditions: 20 mg./kg. intraperitoneal, with Triton WR 1339 200 mg./kg. i.v., 24 hours, vs Triton alone. Here is the method:
1. One of two groups of rats having an average weight of about 200 g., each group consisting of 5 animals, was individually given by intraveneous injection with 200 mg./kg. of Triton WR 1339 (trade name; available from Ruger Chemical Co., Ltd., U.S.A.; having an activity of increasing cholesterol level in blood) simultaneously with intraperitoneal administration of 20 mg./kg. of ML-236B. After 24 hours from administration, rats were sacrificed by bleeding, blood and liver were collected and their cholesterol and neutral lipid levels were determined by a conventional method.

For data set [3], the system named is cholesterol and neutral lipid levels in blood serum. Kind of data set: lowering of cholesterol and neutral lipid in blood serum of rats, oral ML-236B in physiological saline. It is filed as in vivo. The following applies: 80 mg./kg. powdery in physiological saline solution, vs saline. Here is the method: Moreover, one of two other groups of rats, each group consisting of 5 animals, were orally given 80 mg./kg. of powdery ML-236B in the form of a physiological saline solution. After 3 hours from administration, cholesterol and neutral lipid levels in blood serum were determined in the same manner as above.

Data set [4] has the same test system. Kind of data set: lowering of cholesterol and neutral lipid in blood serum of rats, oral ML-236A in gum arabic. Type of data set: in vivo. As to conditions: 5 mg./kg. in gum arabic, vs gum arabic alone. Here is the method:
2. Two of four groups of rats, each group consisting of 5 animals, were orally given one dose of 5 mg./kg. of ML-236A suspended in gum arabic. After 3 hours and 18 hours from administration, animals were sacrificed by bleeding and blood was collected. Cholesterol and neutral lipid levels in blood serum were determined by a conventional method.

Setting [5] is: in methanol, ethanol, acetone, ethyl acetate, chloroform and benzene.
Where [6] appears, read: in n-hexane and petroleum ether.

`CC1C=CC2=CCCCC2C1CCC1CC(O)CC(=O)O1` (centres unmarked) [ML-236C]: the IC50 in the data set with cholesterol biosynthesis was about 0.08 µg/mL (≈ 0.275 µM). The Solubility result is on record as “Soluble” in data set [1] (setting [5]) and “Insoluble” in data set [1] (setting [6]).
Take `CCC(C)C(=O)OC1CCC=C2C=CC(C)C(CCC3CC(O)CC(=O)O3)C21` (centres unmarked) [ML-236B]: the IC50 in the data set on cholesterol biosynthesis is about 0.01 µg/mL (≈ 0.0256 µM). For the same compound, in data set [2], the “lowering of cholesterol level in blood” value was determined as 14.2% and the “lowering of cholesterol level in liver” value stood at 10.1%. Moreover, in data set [3], the “lowering of cholesterol level in blood serum after 3 hours” value is recorded as 20.0% and the “lowering of neutral lipid level in blood serum after 3 hours” value amounted to 44.2%. In addition, the Solubility result in data set [1] (setting [5]) is reported as “Soluble”. The Solubility result in data set [1] (setting [6]) is listed as “Insoluble”.
For `CC1C=CC2=CCCC(O)C2C1CCC1CC(O)CC(=O)O1` (centres unmarked) [ML-236A], the IC50 in the data set on cholesterol biosynthesis is about 0.04 µg/mL (≈ 0.131 µM). Moreover, in data set [4] (3 hours), the “lowering of cholesterol level in blood serum after 3 hours” value is listed as 13.5% and the “lowering of neutral lipid level in blood serum after 3 hours” value is on record as 49.5%. In addition, in data set [4] (18 hours), the “lowering of cholesterol level in blood serum after 18 hours” value stood at 13.5% and the “lowering of neutral lipid level in blood serum after 18 hours” value is given as “not observed”. Also, the Solubility result in data set [1] (setting [5]) is “Soluble”. In addition, in data set [1] (setting [6]), the Solubility entry was “Insoluble”.
